BigSolDB 2.1

O=C(OCC1c2ccccc2-c2ccccc21)ON1C(=O)CCC1=O
solubility (mole fraction)
Conditions	283.15 K	288.15 K	293.15 K	298.15 K	303.15 K	308.15 K	313.15 K	318.15 K	323.15 K	328.15 K
in DMF	0.00369	0.00533	0.00719	0.00964	0.0132	0.0177	0.023	0.0298	0.0387	0.0499
in DMSO	–	–	0.00499	0.00641	0.0084	0.0107	0.0134	0.0167	0.0208	0.0257
in ethanol	0.000477	0.000571	0.000687	0.000824	0.000979	0.00115	0.00134	0.00155	0.00177	0.00205
in ethylene glycol	0.000151	0.00019	0.000241	0.000314	0.000396	0.00049	0.000611	0.000748	0.00092	0.00111
in water	–	–	5.77e-06	7.38e-06	9.44e-06	1.19e-05	1.49e-05	1.84e-05	2.28e-05	2.78e-05
